In patent US5290347A, “Salt-forming type dye, and its concentrated solution composition and ink composition” (Orient Chemical Industries, Ltd., priority 1991, dated 1994):

Assays:
[1] = Solubility of the salt-forming type dyes (Tables 1-3); assay type: physicochemical; conditions: for Solubility, Ethanol: solvent: ethanol; for Solubility, Glycol ether: solvent: glycol ether
[2] = Solubility of the comparative dyes (Table 4), evaluation A-D; assay type: physicochemical; conditions: for Solubility, Glycol ether: solvent: glycol ether; for Solubility, Lower alcohol: solvent: lower alcohol; for Solubility, Water: solvent: water

| SMILES | Solubility, Water:Solvent = 2:8 [1] [g/100 ml] | Solubility, Ethanol [1] [g/100 ml] | Solubility, Glycol ether [1] [g/100 ml] | Solubility, Water:Solvent = 2:8 [2] | Solubility, Glycol ether [2] | Solubility, Lower alcohol [2] | Solubility, Water [2] |
| --- | --- | --- | --- | --- | --- | --- | --- |
| COc1cc(N=Nc2cccc(P(=O)(O)O)c2)c(C)cc1N=Nc1c(S(=O)(=O)O)cc2ccc(N)cc2c1O [Black No. 1] | 15 | 3 | 10 |  |  |  |  |
| COc1cc(N=Nc2cccc(P(=O)(O)O)c2)c(C)cc1N=Nc1c(S(=O)(=O)O)cc2ccc(N)cc2c1O [Black No. 2] | 10 | 5 | 15 |  |  |  |  |
| Nc1ccc2cc(S(=O)(=O)O)c(N=Nc3ccc(N=Nc4cccc(P(=O)(O)O)c4)c4ccc(S(=O)(=O)O)cc34)c(O)c2c1 [Black No. 3] | 20 | 5 | 30 |  |  |  |  |
| Nc1cc2c(O)c(N=Nc3ccc(N=Nc4cccc(P(=O)(O)O)c4)c4ccc(S(=O)(=O)O)cc34)c(S(=O)(=O)O)cc2cc1S(=O)(=O)O [Black No. 4] | 30 | 5 | 30 |  |  |  |  |
| Nc1cc2c(O)c(N=Nc3ccc(N=Nc4cccc(P(=O)(O)O)c4)c4ccc(S(=O)(=O)O)cc34)c(S(=O)(=O)O)cc2cc1S(=O)(=O)O [Black No. 5] | 10 | 10 | 30 |  |  |  |  |
| CC1(C)Nc2cccc3c(N=Nc4cc(S(=O)(=O)O)cc5cc(S(=O)(=O)O)c(N=Nc6cccc(P(=O)(O)O)c6)c(O)c45)ccc(c23)N1 [Black No. 6] | 10 | 10 | 15 |  |  |  |  |
| Nc1ccc2cc(S(=O)(=O)O)cc(O)c2c1N=Nc1cc(S(=O)(=O)O)cc2cc(S(=O)(=O)O)c(N=Nc3cccc(P(=O)(O)O)c3)c(O)c12 [Black No. 7] | 30 | 3 | 20 |  |  |  |  |
| Nc1ccc2cc(S(=O)(=O)O)c(N=Nc3ccc(N=Nc4cccc(P(=O)(O)O)c4)c4ccc(S(=O)(=O)O)cc34)c(O)c2c1 [Black No. 8] | 20 | 8 | 30 |  |  |  |  |
| Nc1c(N=Nc2cccc(P(=O)(O)O)c2)c(S(=O)(=O)O)cc2cc(S(=O)(=O)O)c(N=Nc3cccc(P(=O)(O)O)c3)c(O)c12 [Blue No. 1] | 30 | 3 | 25 |  |  |  |  |
| Nc1cc(S(=O)(=O)O)cc2cc(S(=O)(=O)O)c(N=Nc3ccc(N=Nc4cccc(P(=O)(O)O)c4)c4ccc(O)cc34)c(O)c12 [Blue No. 2] | 30 | 5 | 25 |  |  |  |  |
| COc1cc(N=Nc2cccc(P(=O)(O)O)c2)c(C)cc1N=Nc1c(S(=O)(=O)O)cc2cc(S(=O)(=O)O)cc(N)c2c1O [Blue No. 3] | 25 | 10 | 30 |  |  |  |  |
| O=P(O)(O)c1cccc(N=Nc2ccc(N=Nc3c(O)ccc4cc(S(=O)(=O)O)cc(S(=O)(=O)O)c34)cc2)c1 [Red No. 1] | 30 | 10 | 20 |  |  |  |  |
| CC(=O)Nc1cc(S(=O)(=O)O)cc2cc(S(=O)(=O)O)c(N=Nc3cccc(P(=O)(O)O)c3)c(O)c12 [Red No. 2] | 30 | 8 | 25 |  |  |  |  |
| O=P(O)(O)c1cccc(N=Nc2c(S(=O)(=O)O)cc3cc(Nc4ccc5c(O)c(N=Nc6cccc(P(=O)(O)O)c6)c(S(=O)(=O)O)cc5c4)ccc3c2O)c1 [Red No. 3] | 30 | 5 | 25 |  |  |  |  |
| Nc1cc(N=Nc2cccc(P(=O)(O)O)c2)c2c(O)cc(S(=O)(=O)O)cc2c1N=Nc1cccc(P(=O)(O)O)c1 [Red No. 4] | 30 | 3 | 30 |  |  |  |  |
| Cc1nn(-c2ccccc2)c(O)c1N=Nc1cccc(P(=O)(O)O)c1 [compound 1] |  |  |  | C (dissolved in an amount of 5% or less) | C (dissolved in an amount of 5% or less) | D (dissolved in an amount of 1% or less) | D (dissolved in an amount of 1% or less) |
| Cc1nn(-c2ccccc2)c(O)c1N=Nc1cccc(S(=O)(=O)O)c1 [compound 2] |  |  |  | C (dissolved in an amount of 5% or less) | B (dissolved in an amount of 5~10%) | C (dissolved in an amount of 5% or less) | D (dissolved in an amount of 1% or less) |
| Nc1cc(S(=O)(=O)O)cc2cc(S(=O)(=O)O)c(N=Nc3ccc(N=Nc4cccc(S(=O)(=O)O)c4)c4ccc(O)cc34)c(O)c12 [compound 3] |  |  |  | C (dissolved in an amount of 5% or less) | D (dissolved in an amount of 1% or less) | D (dissolved in an amount of 1% or less) | A (dissolved in an amount of 10% or more) |
| O=P(O)(O)c1cccc(N=Nc2ccc(N=Nc3c(O)ccc4cc(S(=O)(=O)O)cc(S(=O)(=O)O)c34)cc2)c1 [compound 4] |  |  |  | C (dissolved in an amount of 5% or less) | C (dissolved in an amount of 5% or less) | D (dissolved in an amount of 1% or less) | A (dissolved in an amount of 10% or more) |
| Nc1cc2c(O)c(N=Nc3ccc(N=Nc4cccc(P(=O)(O)O)c4)c4ccc(S(=O)(=O)O)cc34)c(S(=O)(=O)O)cc2cc1S(=O)(=O)O [compound 5] |  |  |  | D (dissolved in an amount of 1% or less) | C (dissolved in an amount of 5% or less) | D (dissolved in an amount of 1% or less) | A (dissolved in an amount of 10% or more) |
| Nc1cc2c(O)c(N=Nc3ccc(N=Nc4cccc(P(=O)(O)O)c4)c4ccc(S(=O)(=O)O)cc34)c(S(=O)(=O)O)cc2cc1S(=O)(=O)O [compound 6] |  |  |  | C (dissolved in an amount of 5% or less) | B (dissolved in an amount of 5~10%) | C (dissolved in an amount of 5% or less) | C (dissolved in an amount of 5% or less) |
| CC(=O)Nc1cc(S(=O)(=O)O)cc2cc(S(=O)(=O)O)c(N=Nc3cccc(P(=O)(O)O)c3)c(O)c12 [compound 7] |  |  |  | C (dissolved in an amount of 5% or less) | D (dissolved in an amount of 1% or less) | D (dissolved in an amount of 1% or less) | A (dissolved in an amount of 10% or more) |
| Nc1cc(S(=O)(=O)O)cc2cc(S(=O)(=O)O)c(N=Nc3ccc(N=Nc4cccc(S(=O)(=O)O)c4)c4ccccc34)c(O)c12 [compound 8] |  |  |  | D (dissolved in an amount of 1% or less) | B (dissolved in an amount of 5~10%) | C (dissolved in an amount of 5% or less) | D (dissolved in an amount of 1% or less) |
